Consider one compound from patent US8815934B2, “2-Phenyl-1-[4-(2-Aminoethoxy)-Benzyl]-Indole and estrogen formulations” (Wyeth LLC, priority 1998, dated 2014).

The test concerns Female Sprague Dawley CD rats, ovx. Briefly: 6-week ovariectomized rat model. The class given is in vivo. The settings on record: 2 μg/rat s.c. daily, mean ± SEM. The text has this: Female Sprague Dawley CD rats, ovx or sham ovx, were obtained 1 day after surgery from Taconic Farm (weight range 240-275 g). They were housed 3 or 4 rats/cage in a room on a 14/10 (light/dark) schedule and provided with food (Purina 500 rat chow) and water ad libitum. Treatment for all studies began 1 day after the animals arrival and dosed 5 or 7 days per week as indicated for 6 weeks. A group of age matched sham operated rats not receiving any treatment served as an intact, estrogen replete control group for each study. All treatments were prepared in 1% […] in normal saline at defined concentrations so that the treatment volume was 0.1 mL/100 g body weight. 17-beta estradiol was dissolved in corn oil (20 uG/mL) and delivered subcutaneously; 0.1 mL/rat. All dosages were adjusted at three week intervals according to group mean body weight measurements.
Five weeks after the initiation of treatment and one week prior to the termination of the study, each rat was evaluated for bone mineral density (BMD). The BMD's of the proximal tibiae (PT) and fourth lumbar vertabrae (L4) were measured in anesthetized, rats using a dual energy X-ray absorptiometer (Eclipse XR-26, Norland Corp. Ft. Atkins, Wis.). […] Total choleserol is determined using a Boehringer-Mannheim Hitachi 911 clinical analyzer using the Cholesterol/HP kit. […]

In the case of `C[C@]12CC[C@@H]3c4ccc(O)cc4CC[C@H]3[C@@H]1CC[C@@H]2O` [17β-estradiol], where the note is “following 5 weeks of treatment”, the “BMD L4” value is recorded as 0.169 ± 0.004 mg/cm^2. For the setting “following 6 weeks of treatment”, this compound gave a Cholesterol of 95.5 ± 3.9 mg/dL.
